Test results from patent US10428080B2, “TBK/IKK inhibitor compounds and uses thereof” (Merck Patent GmbH, priority 2015, dated 2019).
Like-named read-outs stand apart in the source and are kept apart here.

Experiments:
TBK1 = biological target: T1, TBK1 (Homo sapiens, UniProt Q9UHD2); assay: TBK Biochemical Assay; details: read-out: TBK1 IC50
T1 sequence (Q9UHD2 1-729): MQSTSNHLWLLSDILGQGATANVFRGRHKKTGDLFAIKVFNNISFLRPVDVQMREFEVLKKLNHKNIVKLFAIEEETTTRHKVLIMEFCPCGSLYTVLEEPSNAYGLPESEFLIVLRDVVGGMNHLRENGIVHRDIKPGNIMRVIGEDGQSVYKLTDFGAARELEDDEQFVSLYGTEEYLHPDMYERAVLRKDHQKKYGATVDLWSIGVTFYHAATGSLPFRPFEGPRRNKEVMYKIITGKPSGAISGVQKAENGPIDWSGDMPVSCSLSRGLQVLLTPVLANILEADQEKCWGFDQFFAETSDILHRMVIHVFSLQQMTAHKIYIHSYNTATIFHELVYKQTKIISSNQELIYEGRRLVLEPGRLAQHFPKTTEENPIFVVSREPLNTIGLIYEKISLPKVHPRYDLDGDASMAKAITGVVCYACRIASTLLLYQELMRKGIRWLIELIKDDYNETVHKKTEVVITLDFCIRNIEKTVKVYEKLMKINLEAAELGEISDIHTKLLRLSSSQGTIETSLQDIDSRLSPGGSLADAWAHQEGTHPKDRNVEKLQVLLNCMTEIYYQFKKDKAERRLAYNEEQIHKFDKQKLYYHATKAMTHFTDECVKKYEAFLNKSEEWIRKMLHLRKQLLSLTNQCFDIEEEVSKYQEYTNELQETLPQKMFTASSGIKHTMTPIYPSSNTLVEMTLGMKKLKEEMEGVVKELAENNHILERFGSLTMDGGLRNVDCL
Summary of the method: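 TBK1 enzyme and substrate incubated with compounds (10-point 1:4 dilution, top 30 uM final, 1% DMSO) for 90 min at 25° C, then stopped. Substrate/product peaks read by microfluidic mobility-shift (Caliper LabChip); 10 uM staurosporine as full-inhibition control.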

IKKε = biological target: T2, IKKε (Homo sapiens, UniProt Q14164); assay: IKKe Biochemical Assay; details: read-out: IKKε IC50
T2 sequence (Q14164 1-716): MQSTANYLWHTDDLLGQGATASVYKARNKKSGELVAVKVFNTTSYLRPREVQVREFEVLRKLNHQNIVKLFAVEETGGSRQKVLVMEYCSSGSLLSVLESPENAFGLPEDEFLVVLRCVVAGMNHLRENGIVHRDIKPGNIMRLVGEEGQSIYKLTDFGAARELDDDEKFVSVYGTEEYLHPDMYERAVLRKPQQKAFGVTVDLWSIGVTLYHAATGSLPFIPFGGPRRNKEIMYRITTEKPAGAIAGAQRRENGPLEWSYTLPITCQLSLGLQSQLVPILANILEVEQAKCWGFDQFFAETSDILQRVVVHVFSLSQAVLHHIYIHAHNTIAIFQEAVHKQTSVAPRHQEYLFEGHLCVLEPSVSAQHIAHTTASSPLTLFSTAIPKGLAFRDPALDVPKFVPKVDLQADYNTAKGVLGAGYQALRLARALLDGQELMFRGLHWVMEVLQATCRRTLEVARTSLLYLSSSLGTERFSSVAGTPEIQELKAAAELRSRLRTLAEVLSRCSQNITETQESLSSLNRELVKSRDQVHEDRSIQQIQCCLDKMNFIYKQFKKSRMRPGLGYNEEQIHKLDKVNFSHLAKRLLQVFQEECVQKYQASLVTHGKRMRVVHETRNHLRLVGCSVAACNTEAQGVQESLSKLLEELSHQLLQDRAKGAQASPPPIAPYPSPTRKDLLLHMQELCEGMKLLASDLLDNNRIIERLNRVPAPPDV
Summary of the method: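 Recombinant IKKε and substrate were incubated with compound (10-point 1:4 series, top 30 uM final, 1% DMSO) for 90 min at 25° C, then stopped. Substrate-to-product conversion was read by LabChip microfluidic mobility shift; 10 uM staurosporine served as full-inhibition wells.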

[1] = system: phosphorylation of the IRF-3 protein in MDA-MB-468 cells; assay: pIRF3 immunocytochemistry cell based assay
Summary of the method: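 MDA-MB-468 cells got compounds (10-point, 3-fold from 10 uM) for 1 h at 37 °C, then 10 ug/ml Poly(I:C) for 2 h. Fixed, permeabilized cells were immunostained for pIRF3 with AlexaFluor488 and counterstained with PI. % phosphorylation was read by laser scanning cytometry, and IC50 curves were fitted.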

[2] = Homo sapiens, MDA-MB-468 cells, Poly(I:C) stimulation, read-out: pIRF3 IC50

COc1cc(C(=O)NC2C3COCC32)cnc1-c1cc2nccc(-c3ccc(N4CC[C@@H](F)C4)c(C#N)c3)c2o1 (stereo partly drawn) [Compound 466, 6-{7-[3-Cyano-4-((R)-3-fluoro-pyrrolidin-1-yl)-phenyl]-furo[3,2-b]pyridin-2-yl}-5-methoxy-N-(3-oxa-bicyclo[3.1.0]hex-6-yl)-nicotinamide]
IC50 (TBK1): < 0.1 µM
IC50 (IKKε): < 0.1 µM
IC50 [1, 2]: 0.1 to 1 µM

COc1cc(C(=O)NC2C3COCC32)cnc1-c1cc2nccc(-c3ccc(N4CC[C@H](F)C4)c(C#N)c3)c2o1 (stereo partly drawn) [Compound 467, 6-{7-[3-Cyano-4-((S)-3-fluoro-pyrrolidin-1-yl)-phenyl]-furo[3,2-b]pyridin-2-yl}-5-methoxy-N-(3-oxa-bicyclo[3.1.0]hex-6-yl)-nicotinamide]
IC50 (TBK1): < 0.1 µM
IC50 (IKKε): < 0.1 µM
IC50 ([1]; MDA-MB-468 cells, Poly(I:C) stimulation, read-out: pIRF3 IC50): 0.1 to 1 µM

COc1cc(-c2cc3nccc(-c4ccc(OC5CCOCC5)c(C#N)c4)c3o2)ccc1C(=O)N(C)C [Compound 470, 4-[7-[3-cyano-4-(oxan-4-yloxy)phenyl]furo[3,2-b]pyridin-2-yl]-2-methoxy-N,N-dimethylbenzamide]
IC50 (TBK1): < 0.1 µM
IC50 (IKKε): < 0.1 µM
IC50 ([1]; Homo sapiens, MDA-MB-468, read-out: pIRF3 IC50): 0.1 to 1 µM

COc1cc(C(=O)N(C)C)ccc1-c1cc2nccc(-c3ccc(NC4CC(C)(C)OC(C)(C)C4)c(C#N)c3)c2o1 [Compound 471, 4-(7-[3-cyano-4-[(2,2,6,6-tetramethyloxan-4-yl)amino]phenyl]furo[3,2-b]pyridin-2-yl)-3-methoxy-N,N-dimethylbenzamide]
IC50 (TBK1): 0.1 to 1 µM
IC50 (IKKε): 0.1 to 1 µM
IC50 [1, 2]: 1 to 5 µM

COc1cc(C(=O)N(C)C2CN3CCC2CC3)ccc1-c1cc2nccc(-c3ccc(OC4CCOCC4)c(C#N)c3)c2o1 (stereo not drawn) [Compound 472, N-(1-Aza-bicyclo[2.2.2]oct-3-yl)-4-{7-[3-cyano-4-(tetrahydro-pyran-4-yloxy)-phenyl]-furo[3,2-b]pyridin-2-yl}-3-methoxy-N-methyl-benzamide]
IC50 (TBK1): < 0.1 µM
IC50 (IKKε): < 0.1 µM
IC50 [1, 2]: < 0.1 µM

COc1cc(C(=O)N(C)CCN2CCCC2)ccc1-c1cc2nccc(-c3ccc(OC4CCOCC4)c(C#N)c3)c2o1 [Compound 473, 4-{7-[3-Cyano-4-(tetrahydro-pyran-4-yloxy)-phenyl]-furo[3,2-b]pyridin-2-yl}-3-methoxy-N-methyl-N-(2-pyrrolidin-1-yl-ethyl)-benzamide]
IC50 (TBK1): < 0.1 µM
IC50 (IKKε): < 0.1 µM
IC50 [1, 2]: < 0.1 µM

COc1cc(C(=O)N2CC3C2CCN3C)ccc1-c1cc2nccc(-c3ccc(OC4CCOCC4)c(C#N)c3)c2o1 (stereo not drawn) [Compound 474, 5-{2-[2-Methoxy-4-(2-methyl-2,6-diaza-bicyclo[3.2.0]heptane-6-carbonyl)-phenyl]-furo[3,2-b]pyridin-7-yl}-2-(tetrahydro-pyran-4-yloxy)-benzonitrile]
IC50 (TBK1): < 0.1 µM
IC50 (IKKε): < 0.1 µM
IC50 [1, 2]: < 0.1 µM

COc1cc(C(=O)NC2(CO)CCCC2)ccc1-c1cc2nccc(-c3ccc(OC4CCOCC4)c(C#N)c3)c2o1 [Compound 475, 4-{7-[3-Cyano-4-(tetrahydro-pyran-4-yloxy)-phenyl]-furo[3,2-b]pyridin-2-yl}-N-(1-hydroxymethyl-cyclopentyl)-3-methoxy-benzamide]
IC50 (TBK1): < 0.1 µM
IC50 (IKKε): < 0.1 µM
IC50 [1, 2]: 0.1 to 1 µM

COc1cc(C(=O)N[C@H]2CCCC[C@H]2O)ccc1-c1cc2nccc(-c3ccc(OC4CCOCC4)c(C#N)c3)c2o1 [Compound 476, 4-{7-[3-Cyano-4-(tetrahydro-pyran-4-yloxy)-phenyl]-furo[3,2-b]pyridin-2-yl}-N-((1S,2R)-2-hydroxy-cyclohexyl)-3-methoxy-benzamide]
IC50 (TBK1): < 0.1 µM
IC50 (IKKε): < 0.1 µM
IC50 [1, 2]: 0.1 to 1 µM

COc1cc(C(=O)NCCN2CCC2)ccc1-c1cc2nccc(-c3ccc(OC4CCOCC4)c(C#N)c3)c2o1 [Compound 477, N-(2-Azetidin-1-yl-ethyl)-4-{7-[3-cyano-4-(tetrahydro-pyran-4-yloxy)-phenyl]-furo[3,2-b]pyridin-2-yl}-3-methoxy-benzamide]
IC50 (TBK1): < 0.1 µM
IC50 (IKKε): < 0.1 µM
IC50 [1, 2]: 0.1 to 1 µM

COc1cc(C(=O)N2CCCCN2C)ccc1-c1cc2nccc(-c3ccc(OC4CCOCC4)c(C#N)c3)c2o1 [Compound 478, 5-{2-[2-Methoxy-4-(2-methyl-tetrahydro-pyridazine-1-carbonyl)-phenyl]-furo[3,2-b]pyridin-7-yl}-2-(tetrahydro-pyran-4-yloxy)-benzonitrile]
IC50 (TBK1): < 0.1 µM
IC50 (IKKε): < 0.1 µM
IC50 [1, 2]: 0.1 to 1 µM

CCC(CO)(CO)NC(=O)c1ccc(-c2cc3nccc(-c4ccc(OC5CCOCC5)c(C#N)c4)c3o2)c(OC)c1 [Compound 479, N-(1,1-Bis-hydroxymethyl-propyl)-4-{7-[3-cyano-4-(tetrahydro-pyran-4-yloxy)-phenyl]-furo[3,2-b]pyridin-2-yl}-3-methoxy-benzamide]
IC50 (TBK1): < 0.1 µM
IC50 (IKKε): < 0.1 µM
IC50 [1, 2]: 0.1 to 1 µM

COc1cc(C(=O)N(C)C(C)(C)CO)ccc1-c1cc2nccc(-c3ccc(OC4CCOCC4)c(C#N)c3)c2o1 [Compound 480, 4-{7-[3-Cyano-4-(tetrahydro-pyran-4-yloxy)-phenyl]-furo[3,2-b]pyridin-2-yl}-N-(2-hydroxy-1,1-dimethyl-ethyl)-3-methoxy-N-methyl-benzamide]
IC50 (TBK1): < 0.1 µM
IC50 (IKKε): < 0.1 µM
IC50 [1, 2]: 0.1 to 1 µM

COc1cc(C(=O)N(C)C(C)(C)C)ccc1-c1cc2nccc(-c3ccc(OC4CCOCC4)c(C#N)c3)c2o1 [Compound 481, N-tert-Butyl-4-{7-[3-cyano-4-(tetrahydro-pyran-4-yloxy)-phenyl]-furo[3,2-b]pyridin-2-yl}-3-methoxy-N-methyl-benzamide]
IC50 (TBK1): < 0.1 µM
IC50 (IKKε): < 0.1 µM
IC50 [1, 2]: 0.1 to 1 µM

COc1cc(C(=O)N2CCCCN2)ccc1-c1cc2nccc(-c3ccc(OC4CCOCC4)c(C#N)c3)c2o1 [Compound 482, 5-{2-[2-Methoxy-4-(tetrahydro-pyridazine-1-carbonyl)-phenyl]-furo[3,2-b]pyridin-7-yl}-2-(tetrahydro-pyran-4-yloxy)-benzonitrile]
IC50 (TBK1): < 0.1 µM
IC50 (IKKε): < 0.1 µM
IC50 [1, 2]: 0.1 to 1 µM

COc1cc(C(=O)N(C)CCS(C)(=O)=O)ccc1-c1cc2nccc(-c3ccc(OC4CCOCC4)c(C#N)c3)c2o1 [Compound 483, 4-{7-[3-Cyano-4-(tetrahydro-pyran-4-yloxy)-phenyl]-furo[3,2-b]pyridin-2-yl}-N-(2-methanesulfonyl-ethyl)-3-methoxy-N-methyl-benzamide]
IC50 (TBK1): < 0.1 µM
IC50 (IKKε): < 0.1 µM
IC50 [1, 2]: < 0.1 µM

COc1cc(C(=O)N(C)C)ccc1-c1cc2nccc(-c3ccc(OC4CN(C)C4)c(C#N)c3)c2o1 [Compound 484, 4-{7-[3-Cyano-4-(1-methyl-azetidin-3-yloxy)-phenyl]-furo[3,2-b]pyridin-2-yl}-3-methoxy-N,N-dimethyl-benzamide]
IC50 (TBK1): < 0.1 µM
IC50 (IKKε): < 0.1 µM
IC50 [1, 2]: < 0.1 µM

COc1cc(C(=O)N(C)C)ccc1-c1cc2nccc(-c3ccc(OC4CN(C(C)C)C4)c(C#N)c3)c2o1 [Compound 485, 4-{7-[3-Cyano-4-(1-isopropyl-azetidin-3-yloxy)-phenyl]-furo[3,2-b]pyridin-2-yl}-3-methoxy-N,N-dimethyl-benzamide]
IC50 (TBK1): 1 to 5 µM
IC50 (IKKε): 1 to 5 µM
IC50 [1, 2]: 1 to 5 µM
